The source of these data is patent publication US8940739B2, “Compound of a reverse-turn mimetic and a production method and use therefor” (JW Pharmaceutical Corporation, priority 2010, dated 2015).

Where two headings read alike, the source gives them in different places.

The experiment concerns MV-4-11 (human, Acute Myeloid Leukemia cell line) cells. Briefly: Cell growth inhibition assay, GI50 of MV-4-11. The experiment is classed as cell-based. Particulars: MV-4-11 cells. How it is done: The anti-proliferative activity (cell growth inhibition assay) of the compounds according to the present invention against AML (Acute Myeloid Leukemia) cancer cells was measured. […] The lower the GI50 value, the higher the anti-proliferative activity.
A cell growth Inhibition assay was performed to investigate the rate of inhibition of cell proliferation by the compounds of the present invention. MV-4-11 (human, Acute Myeloid Leukemia cell line) cells were cultured in Iscove's modified Dulbecco's medium (IMDM) including 10% fetal bovine serum (FBS), 1× penicillin/streptomycin (10,000 units/ml Penicillin, […] Streptomycin in 0.85% NaCl). MV-4-11 cells were harvested with the IMDM and 5×10^4 cells/well were transferred to each well of 96-well culture plates (Nunc, #167008).
The compounds of Examples 1 to 5 were exposed to serial dilution and duplicated for each concentration. For the serial dilution, the compounds of the present invention were repeatedly diluted with the same volume of media onto 96-well assay block (costar, #3956). After the dilution, each compound was added to each well.
Also, the background absorbance was measured during the treatment with the test compounds by replacing the test compound with IMDM in the negative control plate. The plates were incubated for three days (72 hours) at 37 in the humidified incubator containing 5% CO2. On the last day, 20 µl of a CellTiter 96 Aqueous One Solution (Promega #G3581) was added to the culture in each well and the plates were incubated for a few hours at 37 in the humidified incubator containing 5% CO2. After the incubation, the absorbance of each cell was measured at 490 nm using an EnVision (Perkinelmer, USA).
The GI50 values were calculated using a Prism 3.0 program.

[1] abbreviates: 72 hours, read-out: MV4-11 GI50.

The compound `C=CCN1CC(=O)N2[C@@H](Cc3ccc(O)cc3)C(=O)N(Cc3cccc4c(-c5ccc(NC(=O)N6CCC(N7CCOCC7)CC6)cc5)cn(C)c34)C[C@@H]2N1C(=O)NCc1ccccc1` [Compound D-64] registered a 50% growth inhibitory concentration (GI50) (Homo sapiens, MV4-11, 72 h) of 1.2 nM.

Regarding `C=CCN1CC(=O)N2[C@@H](Cc3ccc(O)cc3)C(=O)N(Cc3cccc4c(-c5ccc(NC(=O)N6CCC(N(C)C)CC6)cc5)cn(C)c34)C[C@@H]2N1C(=O)NCc1ccccc1` [Compound D-65], it took 1.3 nM to inhibit growth (Homo sapiens, MV4-11, 72 h) by half (GI50).

Regarding `C=CCN1CC(=O)N2[C@@H](Cc3ccc(O)cc3)C(=O)N(Cc3cccc4c(-c5ccc(NC(=O)N6CC(N7CCC(OC)CC7)C6)cc5)cn(C)c34)C[C@@H]2N1C(=O)NCc1ccccc1` [Compound D-66-1], the GI50 (Homo sapiens, MV4-11, 72 h) stood at 1.4 nM.

Turning to `C=CCN1CC(=O)N2[C@@H](Cc3ccc(O)cc3)C(=O)N(Cc3cccc4c(-c5ccc(NC(=O)N6CC(N7CCOCC7)C6)cc5)cn(C)c34)C[C@@H]2N1C(=O)NCc1ccccc1` [Compound D-66], growth (Homo sapiens, MV4-11, 72 h) was halved (GI50) at 1.3 nM.

Take `C=CCN1CC(=O)N2[C@@H](Cc3ccc(O)cc3)C(=O)N(Cc3cccc4c(-c5ccc(NC(=O)N6CCN(C)CC6)cc5)cn(C)c34)C[C@@H]2N1C(=O)NCc1ccccc1` [Compound D-67]: it took 1.3 nM to inhibit growth (Homo sapiens, MV4-11, 72 h) by half (GI50).

Take `C=CCN1CC(=O)N2[C@@H](Cc3ccc(O)cc3)C(=O)N(Cc3cccc4c(-c5ccc(NC(=O)c6ccc(-n7ccnc7)nc6)cc5)cn(C)c34)C[C@@H]2N1C(=O)NCc1ccccc1` [Compound D-68]: it took 1.4 nM to inhibit growth (Homo sapiens, MV4-11, 72 h) by half (GI50).

Take `C=CCN1CC(=O)N2[C@@H](Cc3ccc(O)cc3)C(=O)N(Cc3cccc4c(-c5ccc(NC(=O)CCCN)cc5)cn(C)c34)C[C@@H]2N1C(=O)NCc1ccccc1` [Compound D-70]: the 50% growth inhibitory concentration (GI50) (Homo sapiens, MV4-11, 72 h) is 4.4 nM.

With `C=CCN1CC(=O)N2[C@@H](Cc3ccc(O)cc3)C(=O)N(Cc3cccc4c(-c5ccc(NC(=O)CCCNCC(N)=O)cc5)cn(C)c34)C[C@@H]2N1C(=O)NCc1ccccc1` [Compound D-71], the concentration for 50% growth inhibition (GI50) (Homo sapiens, MV4-11, 72 h) stood at 1.9 nM.

Under “Homo sapiens, MV4-11, 72 h”, `C=CCN1CC(=O)N2[C@@H](Cc3ccc(O)cc3)C(=O)N(Cc3cccc4c(-c5ccc(NC(=O)Nc6ccc(N7CCN(C)CC7)nc6)cc5)cn(C)c34)C[C@@H]2N1C(=O)NCc1ccccc1` [Compound D-78] registered a GI50 of 1.5 nM.

For the compound `C=CCN1CC(=O)N2[C@@H](Cc3ccc(O)cc3)C(=O)N(Cc3cccc4c(-c5ccc(NC(=O)Nc6ccncn6)cc5)cn(C)c34)C[C@@H]2N1C(=O)NCc1ccccc1` [Compound D-81], for the setting “Homo sapiens, MV4-11, 72 h”, the GI50 is 9.9 nM.

Compound `C=CCN1CC(=O)N2[C@@H](Cc3ccc(O)cc3)C(=O)N(Cc3cccc4c(-c5ccc(NC(=O)NC6CCN(C(C)=O)CC6)cc5)cn(C)c34)C[C@@H]2N1C(=O)NCc1ccccc1` [Compound D-84] displayed a GI50 (Homo sapiens, MV4-11, 72 h) of 1.7 nM.

Turning to `C=CCN1CC(=O)N2[C@@H](Cc3ccc(O)cc3)C(=O)N(Cc3cccc4c(-c5ccc(NC(=O)Nc6ccc(OC)cc6)nc5)cn(C)c34)C[C@@H]2N1C(=O)NCc1ccccc1` [Compound D-86], the GI50 (Homo sapiens, MV4-11, 72 h) was 4.9 nM.

Where the note is “Homo sapiens, MV4-11, 72 h”, `C=CCN1CC(=O)N2[C@@H](Cc3ccc(O)cc3)C(=O)N(Cc3cccc4c(-c5ccc(NC(=O)N6CCN(C)CC6)nc5)cn(C)c34)C[C@@H]2N1C(=O)NCc1ccccc1` [Compound D-87] yielded a GI50 of 1.3 nM.

As for `C=CCN1CC(=O)N2[C@@H](Cc3ccc(O)cc3)C(=O)N(Cc3cccc4c(-c5ccc(NC(=O)C6CCN(C(C)=O)CC6)nc5)cn(C)c34)C[C@@H]2N1C(=O)NCc1ccccc1` [Compound D-89], the GI50 (Homo sapiens, MV4-11, 72 h) was found to be 1.3 nM.

`C=CCN1CC(=O)N2[C@@H](Cc3ccc(O)cc3)C(=O)N(Cc3cccc4c(-c5ccc(NC(=O)NC6CCCCC6)nc5)cn(C)c34)C[C@@H]2N1C(=O)NCc1ccccc1` [Compound D-92] yielded a GI50 (Homo sapiens, MV4-11, 72 h) of 19 nM.

As for `C=CCN1CC(=O)N2[C@@H](Cc3ccc(O)cc3)C(=O)N(Cc3cccc4c(-c5ccc(NC(=O)NCC)nc5)cn(C)c34)C[C@@H]2N1C(=O)NCc1ccccc1` [Compound D-94], the GI50 (Homo sapiens, MV4-11, 72 h) was 1.5 nM.

Where the note is “Homo sapiens, MV4-11, 72 h”, `C=CCN1CC(=O)N2[C@@H](Cc3ccc(O)cc3)C(=O)N(Cc3cccc4c(-c5ccc(NC(=O)NC(C)C)nc5)cn(C)c34)C[C@@H]2N1C(=O)NCc1ccccc1` [Compound D-99] yielded a GI50 of 2.7 nM.

`C=CCN1CC(=O)N2[C@@H](Cc3ccc(O)cc3)C(=O)N(Cc3cccc4c(-c5ccc(C(=O)NC)o5)cn(C)c34)C[C@@H]2N1C(=O)NCc1ccccc1` [Compound D-101] came in with a GI50 (Homo sapiens, MV4-11, 72 h) of 5.8 nM.

In turn, `C=CCN1CC(=O)N2[C@@H](Cc3ccc(O)cc3)C(=O)N(Cc3cccc4c(-c5ccc(C(=O)NC6CCN(C)CC6)o5)cn(C)c34)C[C@@H]2N1C(=O)NCc1ccccc1` [Compound D-103] showed a GI50 (Homo sapiens, MV4-11, 72 h) of 10.8 nM.

`C=CCN1CC(=O)N2[C@@H](Cc3ccc(O)cc3)C(=O)N(Cc3cccc4c(-c5ccc(C(=O)NC6CCN(C(C)C)CC6)o5)cn(C)c34)C[C@@H]2N1C(=O)NCc1ccccc1` [Compound D-104] returned a 50% growth inhibitory concentration (GI50) (Homo sapiens, MV4-11, 72 h) of 6.3 nM.

Regarding `C=CCN1CC(=O)N2[C@@H](Cc3ccc(O)cc3)C(=O)N(Cc3cccc4c(-c5ccc(C(=O)N6CCN(C)CC6)o5)cn(C)c34)C[C@@H]2N1C(=O)NCc1ccccc1` [Compound D-105], it took 3.7 nM to inhibit growth (Homo sapiens, MV4-11, 72 h) by half (GI50).

For the compound `C=CCN1CC(=O)N2[C@@H](Cc3ccc(O)cc3)C(=O)N(Cc3cccc4c(C(=O)N5CCN(C(=O)OC(C)(C)C)CC5)cn(C)c34)C[C@@H]2N1C(=O)NCc1ccccc1` [Compound E-1], the GI50 (Homo sapiens, MV4-11, 72 h) worked out at 5.8 nM.

With `C=CCN1CC(=O)N2[C@@H](Cc3ccc(O)cc3)C(=O)N(Cc3cccc4c(C(=O)N5CCN(C(C)(C)C)CC5)cn(C)c34)C[C@@H]2N1C(=O)NCc1ccccc1` [Compound E-8], the GI50 (Homo sapiens, MV4-11, 72 h) was 8.9 nM.

As to `C=CCN1CC(=O)N2[C@@H](Cc3ccc(O)cc3)C(=O)N(Cc3cccc4c(C(=O)N5CCN(C6CC6)CC5)cn(C)c34)C[C@@H]2N1C(=O)NCc1ccccc1` [Compound E-17], the concentration for 50% growth inhibition (GI50) (Homo sapiens, MV4-11, 72 h) worked out at 4.5 nM.

On to `C=CCN1CC(=O)N2[C@@H](Cc3ccc(O)cc3)C(=O)N(Cc3cccc4c(C(=O)N5CCN(C6CCCC6)CC5)cn(C)c34)C[C@@H]2N1C(=O)NCc1ccccc1` [Compound E-18], for which, where the note is “Homo sapiens, MV4-11, 72 h”, the GI50 was 20.9 nM.

The compound `C=CCN1CC(=O)N2[C@@H](Cc3ccc(O)cc3)C(=O)N(Cc3cccc4c(C(=O)N5CCN(Cc6ccccc6)CC5)cn(C)c34)C[C@@H]2N1C(=O)NCc1ccccc1` [Compound E-26] yielded a GI50 (Homo sapiens, MV4-11, 72 h) of 2.3 nM.

For the setting “Homo sapiens, MV4-11, 72 h”, `C=CCN1CC(=O)N2[C@@H](Cc3ccc(O)cc3)C(=O)N(Cc3cccc4c(C(=O)N5CCN(Cc6ccc(C)cc6)CC5)cn(C)c34)C[C@@H]2N1C(=O)NCc1ccccc1` [Compound E-27] yielded a GI50 of 13.5 nM.

In the case of `C=CCN1CC(=O)N2[C@@H](Cc3ccc(O)cc3)C(=O)N(Cc3cccc4c(C(=O)N5CCN(Cc6ccccn6)CC5)cn(C)c34)C[C@@H]2N1C(=O)NCc1ccccc1` [Compound E-28], the concentration for 50% growth inhibition (GI50) under setting [1] was 5.6 nM.

For `C=CCN1CC(=O)N2[C@@H](Cc3ccc(O)cc3)C(=O)N(Cc3cccc4c(C(=O)N5CCN(Cc6ccccn6)CC5)cn(C)c34)C[C@@H]2N1C(=O)NCc1ccccc1` [Compound E-29], the GI50 under setting [1] came out at 18.4 nM.

Turning to `C=CCN1CC(=O)N2[C@@H](Cc3ccc(O)cc3)C(=O)N(Cc3cccc4c(C(=O)N5CCN(Cc6ccncc6)CC5)cn(C)c34)C[C@@H]2N1C(=O)NCc1ccccc1` [Compound E-30], it took 14.4 nM to inhibit growth (Homo sapiens, MV4-11, 72 h) by half (GI50).

In the case of `C=CCN1CC(=O)N2[C@@H](Cc3ccc(O)cc3)C(=O)N(Cc3cccc4c(C(=O)N5CCN(Cc6cccc(C)n6)CC5)cn(C)c34)C[C@@H]2N1C(=O)NCc1ccccc1` [Compound E-31], for the setting “Homo sapiens, MV4-11, 72 h”, the GI50 came out at 6 nM.

For orientation: GI50 means the concentration giving 50% growth inhibition.
